Reference: publication PMC5430895 (Scientific Reports, 2017)

Assays:
[1] = system: RASF; test: PDGF-induced proliferation of cultured RASF (cell counting); format: cell-based, human; conditions: 18 h, PDGF 10 ng/ml
Experimental: Data are shown as mean ± SEM. […] Cells were grown at standard conditions. […] Cell number was evaluated with a […] cell counter (Roche Innovatis, Reutlingen, Germany).

[2] = system: RASF; test: Saracatinib uptake in human RA synovial fibroblasts (HPLC-UV)
[3] = target: T1, hOCTN2 (Homo sapiens, UniProt O76082); test: Saracatinib uptake in hOCTN2-expressing HEK293 cells (HPLC-UV); conditions: hOCTN2-HEK293, 10 µM saracatinib, 10 min; not significantly different from WT
T1 sequence (O76082 1-557): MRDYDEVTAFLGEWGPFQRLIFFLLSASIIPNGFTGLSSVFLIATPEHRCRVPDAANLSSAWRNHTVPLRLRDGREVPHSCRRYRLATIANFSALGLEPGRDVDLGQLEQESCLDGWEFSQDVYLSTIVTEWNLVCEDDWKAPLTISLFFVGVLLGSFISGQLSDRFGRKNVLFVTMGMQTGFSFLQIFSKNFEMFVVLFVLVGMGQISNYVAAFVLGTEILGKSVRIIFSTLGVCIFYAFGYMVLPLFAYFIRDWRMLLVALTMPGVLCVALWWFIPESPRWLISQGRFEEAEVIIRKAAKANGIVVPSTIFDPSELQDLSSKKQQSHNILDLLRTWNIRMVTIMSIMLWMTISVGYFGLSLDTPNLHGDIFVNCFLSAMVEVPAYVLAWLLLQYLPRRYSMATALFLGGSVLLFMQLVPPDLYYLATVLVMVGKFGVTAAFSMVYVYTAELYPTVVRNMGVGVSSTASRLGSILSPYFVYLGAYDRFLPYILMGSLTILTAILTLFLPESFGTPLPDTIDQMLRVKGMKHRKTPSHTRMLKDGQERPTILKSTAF

[4] = target: T2, hMATE1 (Homo sapiens, UniProt Q96FL8); test: Saracatinib uptake in hMATE1-expressing HEK293 cells (HPLC-UV); conditions: hMATE1-HEK293, 10 µM saracatinib, 10 min; not significantly different from WT
T2 sequence (Q96FL8 1-570): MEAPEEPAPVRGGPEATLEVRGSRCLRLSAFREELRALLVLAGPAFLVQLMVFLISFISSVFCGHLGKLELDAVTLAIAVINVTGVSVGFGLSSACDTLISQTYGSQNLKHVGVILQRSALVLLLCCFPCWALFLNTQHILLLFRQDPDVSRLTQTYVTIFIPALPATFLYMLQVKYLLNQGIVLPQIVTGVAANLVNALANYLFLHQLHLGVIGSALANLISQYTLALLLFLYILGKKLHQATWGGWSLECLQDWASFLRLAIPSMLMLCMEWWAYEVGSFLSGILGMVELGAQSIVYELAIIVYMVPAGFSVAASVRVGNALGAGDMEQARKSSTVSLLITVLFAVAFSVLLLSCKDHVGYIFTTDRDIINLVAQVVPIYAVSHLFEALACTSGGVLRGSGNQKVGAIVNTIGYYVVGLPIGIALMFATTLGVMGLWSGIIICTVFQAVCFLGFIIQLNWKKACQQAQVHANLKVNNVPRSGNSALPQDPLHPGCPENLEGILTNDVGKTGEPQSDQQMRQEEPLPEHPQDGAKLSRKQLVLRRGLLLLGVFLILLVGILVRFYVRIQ

[5] = target: T3, hOCT2 (Homo sapiens, UniProt O15244); test: Saracatinib uptake in hOCT2-overexpressing HEK293 cells (HPLC-UV); conditions: hOCT2-HEK293, 10 µM saracatinib, 10 min, difference of accumulation at 4 °C and 37 °C
T3 sequence (O15244 1-555): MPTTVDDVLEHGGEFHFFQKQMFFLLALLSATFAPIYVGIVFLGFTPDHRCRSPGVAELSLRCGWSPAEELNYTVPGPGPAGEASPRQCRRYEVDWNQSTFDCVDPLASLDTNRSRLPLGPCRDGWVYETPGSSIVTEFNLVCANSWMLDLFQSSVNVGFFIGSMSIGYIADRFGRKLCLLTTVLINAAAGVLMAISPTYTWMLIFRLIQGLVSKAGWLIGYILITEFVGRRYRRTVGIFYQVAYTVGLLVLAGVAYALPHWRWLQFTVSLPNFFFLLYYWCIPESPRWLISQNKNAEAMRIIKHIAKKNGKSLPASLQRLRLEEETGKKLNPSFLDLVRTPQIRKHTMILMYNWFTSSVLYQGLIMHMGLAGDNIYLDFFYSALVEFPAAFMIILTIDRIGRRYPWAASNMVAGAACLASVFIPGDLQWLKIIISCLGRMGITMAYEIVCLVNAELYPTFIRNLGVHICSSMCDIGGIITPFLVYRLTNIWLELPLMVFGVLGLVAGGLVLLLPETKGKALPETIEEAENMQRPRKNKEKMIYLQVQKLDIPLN

[6] = target: T4, hOCTN1 (Homo sapiens, UniProt Q9H015); test: Inhibition of ASP+ uptake in hOCTN1-HEK293 cells (apparent affinity); format: cell-based; design: expressed in transfected cells; host or cells: HEK293, expression induced with 1 mg/l doxycycline; conditions: hOCTN1-HEK293, ASP+ 1 µM
T4 sequence (Q9H015 1-551): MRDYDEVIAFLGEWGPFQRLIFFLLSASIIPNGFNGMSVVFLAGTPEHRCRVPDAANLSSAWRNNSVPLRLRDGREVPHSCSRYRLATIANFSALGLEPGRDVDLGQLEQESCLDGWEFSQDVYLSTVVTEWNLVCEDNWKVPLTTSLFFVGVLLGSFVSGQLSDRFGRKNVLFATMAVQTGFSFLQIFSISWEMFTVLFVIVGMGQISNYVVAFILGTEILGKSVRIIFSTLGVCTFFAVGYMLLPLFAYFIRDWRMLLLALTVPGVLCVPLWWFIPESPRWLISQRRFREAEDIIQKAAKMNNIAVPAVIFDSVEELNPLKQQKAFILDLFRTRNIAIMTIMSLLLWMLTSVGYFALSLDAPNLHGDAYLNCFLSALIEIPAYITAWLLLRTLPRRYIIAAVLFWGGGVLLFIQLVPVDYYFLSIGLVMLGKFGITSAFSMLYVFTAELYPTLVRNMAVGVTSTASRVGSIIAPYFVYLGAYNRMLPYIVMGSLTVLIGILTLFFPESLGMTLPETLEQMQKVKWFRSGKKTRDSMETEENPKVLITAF

With `CN1CCN(CCOc2cc(OC3CCOCC3)c3c(Nc4c(Cl)ccc5c4OCO5)ncnc3c2)CC1` [saracatinib, N-(5-chloro-1,3-benzodioxol-4-yl)-7-[2-(4-methylpiperazin-1-yl)ethoxy]-5-(tetrahydro-2H-pyran-4-yloxy)quinazolin-4-amine] the “inhibition of PDGF-induced cell proliferation” value ([1]; 0.1 µM saracatinib) was “Complete inhibition”, the “inhibition of PDGF-induced cell proliferation” value ([1]; 0.001–1 µM saracatinib) was “potent and dose-dependent inhibition” and the “influence of extracellular pH on saracatinib uptake” value ([2]; RASF) was “pH-dependent”. The “increase of saracatinib uptake versus untreated controls” value ([2]; RASF treated for 18 h with TNFα (10 ng/ml)) was 36 ± 5%, the “saracatinib transport capacity (Vmax)” value ([2]; RASF, 10 min incubation) was 71.6 ± 4.1 nmol/mg protein/10 min and the Km ([2]; read-out: Km of saracatinib uptake, RASF, 10 min incubation) was 39.4 ± 9.4 µM. The “saracatinib accumulation (specific uptake)” value (shortened to “saracatinib accumulation”) [3] was 3.8 ± 1.7 nmol/mg protein, the “saracatinib accumulation” value [4] was 2.3 ± 0.7 nmol/mg protein and the “saracatinib accumulation” value [5] was 7.0 ± 0.5 nmol/mg protein. It also gave an IC50 [6] of 0.072 µM.
